The values below are quoted from earlier work in patent publication US20130230592A1, “NOVEL OMEGA-3 AND OMEGA-6 FATTY ACID COMPOSITIONS AND USES THEREOF” (priority 2010, published 2013).

For the data set the following is noted: after oral intake of 750 mg EPA.

As for `CCC=CCC=CCC=CCC=CCC=CCCCC(=O)O` [EPA, eicosa-5,8,11,14,17-pentaenoic acid], the plasma level result was “about 417 μmol/L”.
